What all share (assay type): functional
Experiment [1] deals with Saccharomyces cerevisiae. As to the kind of experiment: DNA damaging activity against RAD52 DNA repair gene/topoisomerase 1 deficient Saccharomyces cerevisiae GAL4:RAD52 mutant assessed as drug level required to produce 12 mm zone of inhibition assessed per 100 uL in glucose medium after 48 hrs.
The test system of experiment [2] is Saccharomyces cerevisiae. Nature of the experiment: DNA damaging activity against RAD52 DNA repair gene/topoisomerase 1 deficient Saccharomyces cerevisiae GAL4:RAD52 mutant assessed as drug level required to produce 12 mm zone of inhibition assessed per 100 uL in galactose medium after 48 hrs.
Experiment [3] deals with Saccharomyces cerevisiae. As to the kind of experiment: DNA damaging activity against RAD52 DNA repair gene deficient Saccharomyces cerevisiae mutant assessed as drug level required to produce 12 mm zone of inhibition assessed per 100 uL after 48 hrs.
In experiment [4] the test system is Saccharomyces cerevisiae. As to the kind of experiment: DNA damaging activity against wild-type Saccharomyces cerevisiae assessed as drug level required to produce 12 mm zone of inhibition assessed per 100 uL after 48 hrs.

Consider `CCCC/C=C/C=C/CCC/C=C/C=C/[C@@H]1C[C@H](O)[C@H](N)CN1` [PSEUDODISTOMIN C], for which the Activity came to 12 µg in the experiment with Saccharomyces cerevisiae [1], 13 µg in the experiment with Saccharomyces cerevisiae [2], 20 µg in the experiment on Saccharomyces cerevisiae [3] and 38 µg in the experiment on Saccharomyces cerevisiae [4].

With `CO[C@H]1C[C@@H]2CC[C@@H](C)[C@@](O)(O2)C(=O)C(=O)N2CCCC[C@H]2C(=O)O[C@H]([C@H](C)C[C@@H]2CC[C@@H](O)[C@H](OC)C2)CC(=O)[C@H](C)/C=C(\C)[C@@H](O)[C@@H](OC)C(=O)[C@H](C)C[C@H](C)/C=C/C=C/C=C/1C` [SIROLIMUS], the Activity in the experiment with Saccharomyces cerevisiae [1] came out at 0.00044 µg; in the experiment on Saccharomyces cerevisiae [2] it was 0.00074 µg; in the experiment with Saccharomyces cerevisiae [3], 0.00057 µg; in the experiment on Saccharomyces cerevisiae [4], 0.00043 µg.

For `CCCC/C=C/C=C/CCCCC[C@@H]1C[C@H](O)[C@@H](N)CN1` [PSEUDODISTOMIN D], the Activity in the experiment on Saccharomyces cerevisiae [1] stood at 1.9 µg; in the experiment with Saccharomyces cerevisiae [2], 2 µg; in the experiment with Saccharomyces cerevisiae [3], 3.8 µg; in the experiment on Saccharomyces cerevisiae [4], 11 µg.

With `COC1=C(N)C(=O)c2nc(-c3nc(C(=O)O)c(C)c(-c4ccc(OC)c(OC)c4O)c3N)ccc2C1=O` [STREPTONIGRIN], the Activity was 0.009 µg in the experiment on Saccharomyces cerevisiae [1], over 0.1 µg in the experiment with Saccharomyces cerevisiae [2], 0.012 µg in the experiment on Saccharomyces cerevisiae [3] and over 0.1 µg with Saccharomyces cerevisiae [4].

Take `CCCC/C=C/C=C/CCCCC[C@@H]1C[C@H](O)[C@H](N)CN1` [PSEUDODISTOMIN E]: the Activity in the experiment on Saccharomyces cerevisiae [1] is 1.8 µg; in the experiment on Saccharomyces cerevisiae [2] it was 2.3 µg; in the experiment with Saccharomyces cerevisiae [3], 4.3 µg; in the experiment on Saccharomyces cerevisiae [4], 12 µg.

For `CCCC/C=C/C=C/CCC/C=C/C=C/[C@@H]1C[C@@H](O)[C@@H](N)CN1` [PSEUDODISTOMIN F], the Activity was 3.1 µg with Saccharomyces cerevisiae [1], 3.3 µg in the experiment with Saccharomyces cerevisiae [2], 9 µg with Saccharomyces cerevisiae [3] and 20 µg in the experiment with Saccharomyces cerevisiae [4].

Regarding `CCCC/C=C/C=C/CCCCC[C@@H]1C[C@@H](O)[C@@H](N)CN1` [PSEUDODISTOMIN B], the Activity in the experiment with Saccharomyces cerevisiae [1] was 1.5 µg; in the experiment with Saccharomyces cerevisiae [2], 1.5 µg; with Saccharomyces cerevisiae [3], 1.8 µg; in the experiment on Saccharomyces cerevisiae [4] it was 13 µg.

As for `COc1cc(NS(C)(=O)=O)ccc1Nc1c2ccccc2nc2ccccc12` [AMSACRINE], the Activity in the experiment with Saccharomyces cerevisiae [1] is 2.7 µg; in the experiment on Saccharomyces cerevisiae [2], over 20 µg; in the experiment with Saccharomyces cerevisiae [3], 8.2 µg; with Saccharomyces cerevisiae [4], over 20 µg.

Values taken from ChEMBL document CHEMBL1158328, “Three new pseudodistomins, piperidine alkaloids from the ascidian Pseudodistoma megalarva” (1997).
